{
  "source": "BindingDB's records for doi:10.1111/cbdd.12161",
  "about": "(Dalian University of Technology, 2013)",
  "data": [
    {"biological_target": "T1, Induced myeloid leukemia cell differentiation protein Mcl-1 [172-327] (Homo sapiens, UniProt Q07820)", "T1 construct": "172-327", "T1 sequence (Q07820 172-327)": "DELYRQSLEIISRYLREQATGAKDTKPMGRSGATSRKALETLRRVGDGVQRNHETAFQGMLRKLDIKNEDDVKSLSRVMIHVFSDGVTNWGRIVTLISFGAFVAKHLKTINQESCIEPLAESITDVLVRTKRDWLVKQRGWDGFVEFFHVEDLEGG", "experiment": "ITC experiments", "conditions": "pH 8; 25 °C", "procedure": "ITC experiments were carried out using iTC200 (Microcal LLC, Northampton, MA, USA) with each of the compounds 1-6 and Mcl-1 protein. The heat of reaction was obtained by making 16 injections (2.4 µL each) of the ligand (final concentration in the syringe of 200 µM in 50 mM Tris, 150 mM NaCl, and 5% DMSO, pH 8.0) into the reaction cell that contained Mcl-1 in the same buffer (final protein concentration of 20 µM). The experiments were done at 25°C and at a stirring speed of 500 rpm. For the control experiment, the sample cell was filled with the assay buffer and the compound solution was added, respectively.", "units": {"Kd": "nM"}, "values": [
      {"smiles": "Cc1ccc(Sc2ccc3c(c2)C(=O)c2cc(O)c(O)cc2C3=O)cc1", "Kd": 950},
      {"smiles": "O=C1c2ccc(Sc3ccccc3)cc2C(=O)c2cc(O)c(O)cc21", "Kd": 1470},
      {"smiles": "CC(C)c1ccc(Sc2ccc3c(c2)C(=O)c2cc(O)c(O)cc2C3=O)cc1", "Kd": 238},
      {"smiles": "O=C1c2ccc(Br)cc2C(=O)c2cc(O)c(O)cc21", "Kd": 1840},
      {"smiles": "O=C1c2ccccc2C(=O)c2cc(O)c(O)cc21", "Kd": 1850}
    ]}
  ]
}
